Experimental data as given in PMC10610379, “Epidrugs as Promising Tools to Eliminate Plasmodium falciparum Artemisinin-Resistant and Quiescent Parasites” (Pharmaceutics, 2023).
“And” between values parts separate entries of the source, which are not always exact repeats. Equal entries are not always repeated.

Assays:
Jurkat = settings: read-out: Cytotoxicity: CC50 (Jurkat), data from literature ref 41; cited from earlier work
[1] = system: ART-resistant parasites F32-ART at the quiescent stage; assay: Modified QSA, 24-h exposure; format: cell-based, Plasmodium falciparum; settings: DHA 700 nM, compound at its IC90, 24-h exposure
Description: Epidrugs were tested at their IC90 values. In the present study, quiescence was induced using 3 µM of ART or 700 nM of DHA [28]. Thus, D-sorbitol synchronized ring-stage parasites at 3% parasitemia and 2% hematocrit (5 mL of culture per well in 6-well plates) were first exposed to 6 h of ART or DHA to induce quiescence and then to 48 h of the combination “ART or DHA + compound to be tested”. The combinations “ART 6 h/ART 48 h” or “DHA 6 h/DHA 48 h” were used as controls. The compounds were evaluated, in parallel, on proliferating parasites, i.e., without any pre-treatment. […] The parasitemia for each condition was then microscopically monitored every 2 days. […] When relevant, statistical significance between results obtained for the conditions “ART/ART” and “ART/ART + compound to be tested” or “DHA/DHA” and “DHA/DHA + compound to be tested” was determined by a Log Rank (Mantel Cox) test using GraphPad Prism version 7.05. […]
To collect enough material for immunoblotting, we performed the analysis after a 24-h exposure of DHA-treated parasites to the epidrug and in parallel evaluated the activity of the three epidrugs in a modified QSA, in which quiescent parasites were exposed to the drug to be tested for 24 instead of 48 h, as in our previous experiments (Figure 2).

[2] = system: ART-resistant parasites F32-ART at the quiescent stage; assay: Quiescent-stage Survival Assay (QSA), 48-h exposure; format: cell-based, Plasmodium falciparum
Description: The sensitivity of the ART-resistant parasites F32-ART at the quiescent stage towards the different molecules was determined using the QSA (Quiescent-stage Survival Assay), as previously described.
Epidrugs were tested at their IC90 values. In the present study, quiescence was induced using 3 µM of ART or 700 nM of DHA [28]. Thus, D-sorbitol synchronized ring-stage parasites at 3% parasitemia and 2% hematocrit (5 mL of culture per well in 6-well plates) were first exposed to 6 h of ART or DHA to induce quiescence and then to 48 h of the combination “ART or DHA + compound to be tested”. The combinations “ART 6 h/ART 48 h” or “DHA 6 h/DHA 48 h” were used as controls. The compounds were evaluated, in parallel, on proliferating parasites, i.e., without any pre-treatment. After drug exposure, parasite cultures were washed with 40 mL of RPMI-1640 medium and cultured in drug-free conditions supplemented with 10% human serum in new wells. The parasitemia for each condition was then microscopically monitored every 2 days. Culture media were renewed twice a week and 25 µL of fresh red blood cells were added once a week. Obtained data were used to perform Kaplan–Meier survival analyses considering censored data. The outcome was defined as the day when parasite cultures reached the initial parasitemia (3%) and data were considered as censored if no parasite recrudescence was observed during the 30-day experiment timeframe. When relevant, statistical significance between results obtained for the conditions “ART/ART” and “ART/ART + compound to be tested” or “DHA/DHA” and “DHA/DHA + compound to be tested” was determined by a Log Rank (Mantel Cox) test using GraphPad Prism version 7.05. For the best compounds targeting histones, in order to compare western blots data, modified QSAs were carried out by comparing “DHA 6 h/DHA 24 h” versus “DHA 6 h/DHA + compound to be tested 24 h”.

[3] = system: Plasmodium falciparum F32-TEM (artemisinin-sensitive twin line); assay: Standard chemosensitivity assay (SYBR Green I), F32-TEM; format: cell-based; settings: Plasmodium falciparum; F32-TEM, 48 h incubation, SYBR Green I; mean ± SEM of 3 experiments (* mean of 2); read-out: Antiplasmodial Activity: IC50, F32-TEM
Description: (§1) They differ by eight mutations in seven genes (PF3D7_0110400, PF3D7_1343700, PF3D7_0213400, PF3D7_1115700, PF3D7_1302100, PF3D7_1459600, PF3D7_1464500) among them the M476I mutation on the kelch13 gene. F32-ART and F32-TEM strains have RSA^0–3 h values up to 12% and less than 0.1%, respectively. […] Both strains were cultured, in the same conditions, according to the Trager and Jensen protocol with modifications. Briefly, parasites were cultivated in RPMI-1640 medium (Biowest) at 2% hematocrit in human red blood cells and 5% human serum (EFS, French Blood Bank) under 5% CO2 in a humid atmosphere at 37 °C.
(§2) The antimalarial activities of the compounds were evaluated on both strains. […] Antimalarial activities were determined with the SYBR Green I method. Each drug concentration was tested in triplicate. The parasites were incubated with the drugs for 48 h. Plates were read on a BioTek FLX800 Microplate Fluorescence Reader (Bio-Tek instruments, Winooski, VT, USA) (λexcitation = 485 nm, λemission = 528 nm). Control parasite culture (i.e., RPMI with 0.5% DMSO) was referred to as 100% growth. IC50 and IC90 values were determined using GraphPad Prism version 7.05 (GraphPad Software, San Diego, CA, USA). Results were the mean of 3 independent experiments. When it is relevant, statistical significance between results obtained with both parasite strains was determined by a Mann–Whitney test using GraphPad Prism version 7.05.

H4ac4 = assay: Immunoblotting, histone mark abundance in F32-ART parasites; format: cell-based, Plasmodium falciparum; settings: 90nM
Description: (§3) Abundance of methylated and acetylated histone was determined in parasite cultures in different conditions: “not-treated”, “DHA 24 h”, “DHA 6 h/DHA 24 h” and “DHA 6 h/DHA + compound to be tested 24 h”. At the end of the treatments, parasite cultures were washed in RPMI-1640 and then twice in PBS 1× before red blood cell lysis with 0.075% saponin (Sigma-Aldrich) in PBS. Parasite ghosts were washed 3 times in PBS before incubating the ghosts with E1A lysis buffer (50 mM Hepes pH 7.5; 250 mM NaCl; 5 mM EDTA; 0.1% Triton X-100, 1 mM DTT, 0.2 mM PMSF supplemented with complete Mini EDTA-free protease inhibitor cocktail (Roche®, Basel, Switzerland)) for 15 min. Ghosts were then sonicated for 3 × 15s ON/OFF cycles to shear parasite membranes. Debris were pelleted by centrifuging for 15 min at 13,800× g and 4 °C, and supernatants (containing parasitic proteins) were then collected. Protein concentrations were determined using BCA assay (Bio-Rad, Hercules, CA, USA) according to the manufacturer’s instructions. For each sample, 10 µg of proteins were mixed with 4× sample buffer (10 mL 50% Glycerol, 5 mL 0.5 M Tris HCl pH 6.8, 4 mL 20% SDS, 0.02% Bromophenol blue for a total solution volume of 20 mL) and 100 mM DTT and then separated on 15% SDS-PAGE gels in Laemmli running buffer. Gels were then wet-transferred O/N at 20 V onto PVDF membranes. Membranes were blocked in TBST for 1 h at room temperature. Bottom parts were then probed with histone antibodies while upper parts were probed with PFALDOLASE antibody (Abcam, ab38905, Cambridge, UK) at 1:20,000 dilution. The following primary antibodies were used: anti-H3K4me1 (Abcam, ab8895); anti-H3K4me2 (Abcam, ab35356); anti-H3K9me2 (Abcam, ab1220); anti-H3K9me3 (Millipore, 07-442, Burlington, MA, USA); anti-tetra-acetyl H4 (Millipore, 06-866); anti-H4K8Ac (Millipore, 07-328); anti-H4K20me3 (Abcam, ab9053); anti-H3K4me3 (Diagenode) and anti-H3K9Ac (Millipore, 07-352) at 1:10,000. The following secondary antibodies were used: anti-rabbit IgG-Peroxidase produced in goat (Sigma-Aldrich) or anti-mouse IgG-Peroxidase (Sigma-Aldrich); at 1:20,000 dilutions. Blots were developed using ECL Prime Western Blotting (GE Healthcare, Chicago, IL, USA) and read on a Chemidoc touch imaging software. Densitometry analysis was performed by using ImageLab software from Bio-Rad. To determine if variations in histone abundances were statistically significant, immunoblotting experiments were performed on 3 biological replicates and each run was performed twice.

H4K8ac = assay: as above; format: cell-based, Plasmodium falciparum; settings: 90nM
Description: as §3

[4] = system: Plasmodium falciparum F32-ART (artemisinin-resistant strain); assay: Standard chemosensitivity assay (SYBR Green I), F32-ART; format: cell-based; settings: for IC50: Plasmodium falciparum, F32-ART, 48 h incubation, SYBR Green I, mean ± SEM of 3 experiments (* mean of 2), read-out: Antiplasmodial Activity: IC50, F32-ART; for Selectivity Index CC50/IC50: ratio cytotoxicity (mammalian cell type of the CC50)/antiplasmodial activity on F32-ART
Description: as §1, §2

NIH3T3 = system: NIH3T3; set-up: method as in PMID 28644986; settings: data from literature ref 50, read-out: Cytotoxicity: CC50 (NIH3T3); cited from earlier work
HL-60 = settings: read-out: Cytotoxicity: CC50 (HL-60), data from literature ref 49; cited from earlier work
HeLa = settings: cited from earlier work
human mesenchymal stem = system: human mesenchymal stem; set-up: method as in PMID 30237855; settings: data from literature ref 53, read-out: Cytotoxicity: CC50 (human mesenchymal stem); cited from earlier work
[5] = 24 h, F32-ART ring stage proliferating, 3 replicates (Fig 3A)
[6] = DHA 6 h/DHA + apicidin 24 h, F32-ART DHA-treated parasites, 3 replicates (Fig 3E)

| Structure (SMILES) | CC50 (Jurkat) [nM] | Recrudescence in modified QSA, DHA 6 h/DHA + compound 24 h vs DHA 6 h/DHA 24 h [1] | Delay in parasite recrudescence time (difference between median recrudescence times), ART/ART + compound vs ART/ART ([2]; quiescence induced with ART 3 µM 6 h, then 48 h ART + compound at its IC90) [days] | Delay in recrudescence time, DHA/DHA + compound vs DHA/DHA ([2]; quiescence induced with DHA 700 nM 6 h, then 48 h DHA + compound at its IC90) | IC50 [3] [nM] | Fold change of H4ac4 abundance, apicidin vs DMSO (H4ac4; [5]) | Fold change of H4ac4 abundance, apicidin, quiescent stage (H4ac4; [6]) | Fold change of H4K8ac abundance, apicidin vs DMSO (H4K8ac; [5]) | Fold change of H4K8ac abundance, apicidin, quiescent stage (H4K8ac; [6]) | IC50 [4] [nM] | Selectivity Index CC50/IC50 [4] | CC50 (NIH3T3) [nM] | CC50 (HL-60) [nM] | CC50 (HeLa) [nM] | CC50 (human mesenchymal stem) [nM] |
| --- | --- | --- | --- | --- | --- | --- | --- | --- | --- | --- | --- | --- | --- | --- | --- |
| CCC(=O)CCCCC[C@@H]1NC(=O)[C@H]2CCCCN2C(=O)[C@H]([C@@H](C)CC)NC(=O)[C@H](Cc2cn(OC)c3ccccc23)NC1=O [Apicidin] | 10000 | no difference in recrudence time | 8 | slightly shorter delay | 36 ± 5 | increase and 1.70 and 1.40 and 1.39 | increase and 2.21 and 2.92 and 2.08 | 0.98 and 1.16 and 0.96 | increase and 1.81 and 2.83 and 2.40 | 36 ± 9 | 280 |  |  |  |  |
| C#CCN(Cc1ccc2nc(N)[nH]c(=O)c2c1)c1ccc(C(=O)N[C@@H](CCC(=O)O)C(=O)O)cc1 [CB3717] |  |  |  |  | 1000 |  |  |  |  | 1000 | >20 | > 20000 |  |  |  |
| CN1C(=O)[C@@]23C[C@]4([C@]56C[C@@]78SS[C@@](CO)(C(=O)N7[C@H]5Nc5ccccc56)N(C)C8=O)c5ccccc5N[C@@H]4N2C(=O)[C@]1(CO)SS3 [Chaetocin] |  |  |  |  | 730 ± 90 |  |  |  |  | 640 ± 160 | 0.2 |  | 130 |  |  |
| NNc1nncc2ccccc12 [Hydralazine] |  |  |  |  | > 10000 |  |  |  |  | > 10000 | <4 |  |  | 40000 |  |
| Clc1ccc(N/N=C(\c2ccccc2)c2ccccn2)nc1 [JIB-04] |  |  |  |  | 940 ± 30 |  |  |  |  | 560 ± 80 | >18 |  |  |  | > 10000 |
